# Measured values taken from US8933018B2, “Boron containing polybasic bacterial efflux pump inhibitors and therapeutic uses thereof” (priority 2011, dated 2015).
# System: P. aeruginosa, PAM1723, overexpressing the MexAB-OprM efflux pump
# Assay type: cell-based, Pseudomonas aeruginosa
# Conditions: lowest EPI concentration giving antibacterial activity with levofloxacin at 1/8 of its MIC, MHB, 20 h at 35° C.
# Experimental: All EPI compounds were readily soluble in water and stock solutions were prepared at a final concentration of 10 mg/ml. Stock solutions were further diluted, according to the needs of the particular assay, in Mueller Hinton Broth (MHB). Stock solution was stored at […].
# The checkerboard assay was performed in microtiter plates. […] EPIs were diluted in the y-axis, each row containing a single concentration of an EPI. […] The assay was performed in MHB with a final bacterial inoculum of 5 times 10^5 CFU/ml (from an early-log phase culture). Microtiter plates were incubated during 20 h at 35° C. and were read using a microtiter plate reader (Molecular Devices) at 650 nm as well as visual observation using a microtiter plate-reading mirror.
row,Compound,MPC8 (Minimum Potentiating Concentration)
1,"CC1(C)OB(O)c2cc(NC(=O)[C@@H](Cc3ccc(C(F)(F)F)cc3)NC(=O)[C@@H](N)CCC(=O)N3C[C@H](N)C[C@H](N)C3)ccc21 [Compound 67, (S)-2-amino-5-((3R,5S)-3,5-diaminopiperidin-1-yl)-N-((R)-1-(1-hydroxy-3,3-dimethyl-1,3-dihydrobenzo[c][1,2]oxaborol-6-ylamino)-1-oxo-3-(4-(trifluoromethyl)phenyl)propan-2-yl)-5-oxopentanamide]",B (B = MPC8 of 2.5 μg/ml to less than 10 μg/mL.)
2,"CC1(C)OB(O)c2cc(NC(=O)[C@@H](Cc3ccc(C(F)(F)F)cc3)NC(=O)[C@@H](N)CCC(=O)N3C[C@@H](N)C[C@H](N)C3)ccc21 [Compound 74, (S)-2-amino-5-((3S,5S)-3,5-diaminopiperidin-1-yl)-N-((R)-1-(1-hydroxy-3,3-dimethyl-1,3-dihydrobenzo[c][1,2]oxaborol-6-ylamino)-1-oxo-3-(4-(trifluoromethyl)phenyl)propan-2-yl)-5-oxopentanamide]",B (B = MPC8 of 2.5 μg/ml to less than 10 μg/mL.)
3,"CC1(C)OB(O)c2cc(NC(=O)[C@@H](Cc3ccc(C(F)(F)F)cc3)NC(=O)[C@@H](N)CCC(=O)N3C[C@@H](N)C[C@H]3CN)ccc21 [Compound 75, (S)-2-amino-5-((2S,4S)-4-amino-2-(aminomethyl)pyrrolidin-1-yl)-N-((R)-1-(1-hydroxy-3,3-dimethyl-1,3-dihydrobenzo[c][1,2]oxaborol-6-ylamino)-1-oxo-3-(4-(trifluoromethyl)phenyl)propan-2-yl)-5-oxopentanamide]",B (B = MPC8 of 2.5 μg/ml to less than 10 μg/mL.)
4,"CC(C)c1ccc(C[C@@H](NC(=O)[C@@H](N)CCC(=O)N(CCN)CCN)C(=O)Nc2ccc3c(c2)B(O)OC3(C)C)cc1 [Compound 78, (S)-2-amino-N5,N5-bis(2-aminoethyl)-N^1-((R)-1-(1-hydroxy-3,3-dimethyl-1,3-dihydrobenzo[c][1,2]oxaborol-6-ylamino)-3-(4-isopropylphenyl)-1-oxopropan-2-yl)pentanediamide]",A (A = MPC8 of less than 2.5 μg/mL.)
5,"CC1(C)OB(O)c2ccc(NC(=O)[C@@H](Cc3ccc(C(F)(F)F)cc3)NC(=O)[C@@H](N)CCC(=O)N(CCN)CCN)cc21 [Compound 84, (S)-2-amino-N^5,N^5-bis(2-aminoethyl)-N^1-((R)-1-(1-hydroxy-3,3-dimethyl-1,3-dihydrobenzo[c][1,2]oxaborol-5-ylamino)-1-oxo-3-(4-(trifluoromethyl)phenyl)propan-2-yl)pentanediamide]",B (B = MPC8 of 2.5 μg/ml to less than 10 μg/mL.)
6,"CC1(C)OB(O)c2ccc(CNC(=O)[C@@H](Cc3ccc(C(F)(F)F)cc3)NC(=O)[C@@H](N)CCC(=O)N(CCN)CCN)cc21 [Compound 90, (S)-2-amino-N^5,N^5-bis(2-aminoethyl)-N^1-((R)-1-((1-hydroxy-3,3-dimethyl-1,3-dihydrobenzo[c][1,2]oxaborol-5-yl)methylamino)-1-oxo-3-(4-(trifluoromethyl)phenyl)propan-2-yl)pentanediamide]",B (B = MPC8 of 2.5 μg/ml to less than 10 μg/mL.)
7,"CC1(C)OB(O)c2ccc(CNC(=O)[C@@H](CCc3ccc(C(F)(F)F)cc3)NC(=O)[C@@H](N)CCC(=O)N(CCN)CCN)cc21 [Compound 93, (S)-2-amino-N^5,N^5-bis(2-aminoethyl)-N^1-((R)-1-((1-hydroxy-3,3-dimethyl-1,3-dihydrobenzo[c][1,2]oxaborol-5-yl)methylamino)-1-oxo-4-(4-(trifluoromethyl)phenyl)butan-2-yl)pentanediamide]",B (B = MPC8 of 2.5 μg/ml to less than 10 μg/mL.)
8,"CC1(C)OB(O)c2ccc(NC(=O)[C@@H](CCc3ccc(C(F)(F)F)cc3)NC(=O)[C@@H](N)CCC(=O)N(CCN)CCN)cc21 [Compound 94, (S)-2-amino-N^5,N^5-bis(2-aminoethyl)-N^1-((R)-1-(1-hydroxy-3,3-dimethyl-1,3-dihydrobenzo[c][1,2]oxaborol-5-ylamino)-1-oxo-4-(4-(trifluoromethyl)phenyl)butan-2-yl)pentanediamide]",A (A = MPC8 of less than 2.5 μg/mL.)
9,"CC1(C)OB(O)c2ccc(NC(=O)[C@@H](Cc3ccc(C(F)(F)F)cc3)NC(=O)[C@@H](N)CCC(=O)NC(CN)CN)cc21 [Compound 95, (S)-2-amino-N^5-(1,3-diaminopropan-2-yl)-N^1-((R)-1-(1-hydroxy-3,3-dimethyl-1,3-dihydrobenzo[c][1,2]oxaborol-5-ylamino)-1-oxo-3-(4-(trifluoromethyl)phenyl)propan-2-yl)pentanediamide]",B (B = MPC8 of 2.5 μg/ml to less than 10 μg/mL.)
10,"CC1(C)OB(O)c2ccc(NC(=O)[C@@H](CCc3ccc(C(F)(F)F)cc3)NC(=O)[C@@H](N)CCC(=O)NC(CN)CN)cc21 [Compound 96, (S)-2-amino-N^5-(1,3-diaminopropan-2-yl)-N^1-((R)-1-(1-hydroxy-3,3-dimethyl-1,3-dihydrobenzo[c][1,2]oxaborol-5-ylamino)-1-oxo-4-(4-(trifluoromethyl)phenyl)butan-2-yl)pentanediamide]",A (A = MPC8 of less than 2.5 μg/mL.)
11,"CC1(C)OB(O)c2ccc(NC(=O)[C@@H](COc3ccc(C(F)(F)F)cc3)NC(=O)[C@@H](N)CCC(=O)NC(CN)CN)cc21 [Compound 97, (S)-2-amino-N^5-(1,3-diaminopropan-2-yl)-N^1-((R)-1-(1-hydroxy-3,3-dimethyl-1,3-dihydrobenzo[c][1,2]oxaborol-5-ylamino)-1-oxo-3-(4-(trifluoromethyl)phenoxy)propan-2-yl)pentanediamide]",B (B = MPC8 of 2.5 μg/ml to less than 10 μg/mL.)
12,"CC1(C)OB(O)c2ccc(NC(=O)[C@@H](CSc3ccc(C(F)(F)F)cc3)NC(=O)[C@@H](N)CCC(=O)NC(CN)CN)cc21 [Compound 98, (S)-2-amino-N^5-(1,3-diaminopropan-2-yl)-N^1-((S)-1-(1-hydroxy-3,3-dimethyl-1,3-dihydrobenzo[c][1,2]oxaborol-5-ylamino)-1-oxo-3-(4-(trifluoromethyl)phenylthio)propan-2-yl)pentanediamide]",B (B = MPC8 of 2.5 μg/ml to less than 10 μg/mL.)
13,"CC1(C)OB(O)c2c(NC(=O)[C@@H](Cc3ccc(C(F)(F)F)cc3)NC(=O)[C@@H](N)CCC(=O)N(CCN)CCN)cccc21 [Compound 101, (S)-2-amino-N^5,N^5-bis(2-aminoethyl)-N^1-((R)-1-(1-hydroxy-3,3-dimethyl-1,3-dihydrobenzo[c][1,2]oxaborol-7-ylamino)-1-oxo-3-(4-(trifluoromethyl)phenyl)propan-2-yl)pentanediamide]",B (B = MPC8 of 2.5 μg/ml to less than 10 μg/mL.)
14,"CC1(C)OB(O)c2c(NC(=O)[C@@H](CCc3ccc(C(F)(F)F)cc3)NC(=O)[C@@H](N)CCC(=O)N(CCN)CCN)cccc21 [Compound 102, (S)-2-amino-N^5,N^5-bis(2-aminoethyl)-N^1-((R)-1-(1-hydroxy-3,3-dimethyl-1,3-dihydrobenzo[c][1,2]oxaborol-7-ylamino)-1-oxo-4-(4-(trifluoromethyl)phenyl)butan-2-yl)pentanediamide]",B (B = MPC8 of 2.5 μg/ml to less than 10 μg/mL.)
